Measurements taken from patent publication US20250340881A1, “PHARMACEUTICAL COMPOSITION FOR TREATING CANCER COMPRISING FOXM1 MUTANT OR FOXM1 SHRNA” (Industry-University Cooperation Foundation Hanyang …, priority 2022, published 2025).

Tested on: A549 lung cancer cells
Assay: Real-time PCR of EMT, M2-inducing and immune evasion factors in A549 cells treated with Thiostrepton
Assay type: cell-based
Conditions: 5 μM, 48 h, Mock and S25E cells

C=C(NC(=O)C(=C)NC(=O)c1csc(C2=N[C@@H]3c4csc(n4)[C@H]4NC(=O)c5csc(n5)[C@H]([C@](C)(O)[C@@H](C)O)NC(=O)[C@H]5CSC(=N5)/C(=C/C)NC(=O)[C@H]([C@@H](C)O)NC(=O)c5csc(n5)[C@]3(CC2)NC(=O)[C@H](C)NC(=O)C(=C)NC(=O)[C@H](C)NC(=O)[C@H]([C@@H](C)CC)N[C@@H]2C=Cc3c([C@H](C)O)cc(nc3[C@H]2O)C(=O)O[C@@H]4C)n1)C(N)=O [Thiostrepton]
expression of IL6, VEGFA and CD274 (PD-L1): significantly reduced | expression of mesenchymal markers CDH2, vimentin, SNAI1 and SNAI2: significantly reduced | expression of IL6, VEGFA and CD274 (PD-L1) (listed as thiostepton): reduced | expression of mesenchymal markers CDH2, vimentin, SNAI1 and SNAI2 (listed as thiostepton): reduced
